In ChEMBL document CHEMBL1129256, “Potent thrombin inhibitors that probe the S1 subsite: tripeptide transition state analogues based on a heterocycle-activated carbonyl group” (J Med Chem, 1996):

Columns and labels:
[1] = target: T1, Serine protease 1 (Bos taurus, UniProt P00760); assay: Inhibition of bovine trypsin
T1 sequence (P00760 whole entry): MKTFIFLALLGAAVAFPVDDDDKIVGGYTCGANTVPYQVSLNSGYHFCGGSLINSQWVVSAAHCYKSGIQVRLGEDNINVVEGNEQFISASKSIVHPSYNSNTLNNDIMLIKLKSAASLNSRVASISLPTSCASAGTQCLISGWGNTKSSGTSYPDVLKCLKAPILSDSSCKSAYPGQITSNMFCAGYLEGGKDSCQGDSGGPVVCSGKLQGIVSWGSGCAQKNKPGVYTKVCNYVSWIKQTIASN

[2] = species: Bos taurus; assay: Inhibition of trypsin, selectivity with respect to thrombin
[3] = target: Prothrombin (Homo sapiens, UniProt P00734); assay: Inhibition of human alpha-thrombin.
[4] = Compound was tested for inhibition of activated protein C. selectivity with respect to thrombin
[5] = Compound was tested for inhibition of plasmin, selectivity with respect to thrombin
[6] = Compound was tested for inhibition of streptokinase (SK). selectivity with respect to thrombin
[7] = Compound was tested for inhibition of tissue-type plasminogen activator (tissue plasminogen activator), selectivity with respect to thrombin

| SMILES | Ki [1] | Selectivity [2] | Ki [3] | further results |
| --- | --- | --- | --- | --- |
| CN[C@H](Cc1ccccc1)C(=O)N1CCC[C@H]1C(=O)N[C@@H](CCCNC(=N)N)C(=O)c1nc2ccccc2n1C | 290 nM | 36 | 8.1 nM | – |
| CN[C@H](Cc1ccccc1)C(=O)N1CCC[C@H]1C(=O)N[C@H](C=O)CCCNC(=N)N | – | 0.39 | – | Selectivity [4]: 72; Selectivity [5]: 33; Selectivity [6]: 170; Selectivity [7]: 130 |
| CN[C@H](Cc1ccccc1)C(=O)N1CCC[C@H]1C(=O)N[C@@H](CCCNC(=N)N)C(=O)c1nc2c(s1)CCCC2 | 4.4 nM | – | 3.4 nM | – |
| Cc1ccc(S(=O)(=O)N/C(N)=N\CCC[C@@H](NC(=O)[C@H]2CCCN2C(=O)[C@H](Cc2ccccc2)N(C)C(=O)OCc2ccccc2)C(O)c2nc3ccccc3s2)cc1 (some centres undefined) | > 150000 nM | – | 16000 nM | – |
| CN[C@H](Cc1ccccc1)C(=O)N1CCC[C@H]1C(=O)N[C@@H](CCCN=C(N)N)C(=O)c1nc2ccccc2s1 | – | 16 | 0.19 nM | Selectivity [4]: 19000; Selectivity [5]: 12000; Selectivity [6]: 6300; Selectivity [7]: 3300 |
| CN[C@H](Cc1ccccc1)C(=O)N1CCC[C@H]1C(=O)N[C@@H](CCCN=C(N)N)C(=O)c1nccs1 | – | 0.4 | – | – |
| CN[C@H](Cc1ccccc1)C(=O)N1CCC[C@H]1C(=O)N[C@@H](CCCNC(=N)N)C(=O)c1nccn1C | – | 88 | – | – |
| CN[C@H](Cc1ccccc1)C(=O)N1CCC[C@H]1C(=O)N[C@@H](CCCNC(=N)N)C(=O)c1nc2ccccc2[nH]1 | 38 nM | – | 12 nM | – |
| CN[C@H](Cc1ccccc1)C(=O)N1CCC[C@H]1C(=O)N[C@@H](CCCN=C(N)N)C(=O)C1=NC(=O)C2C=CC=CC2=N1 (some centres undefined) | 8.2 nM | 0.6 | 15 nM | – |
| CN[C@H](Cc1ccccc1)C(=O)N1CCC[C@H]1C(=O)N[C@@H](CCCNC(=N)N)C(=O)c1nccs1 | 1.6 nM | – | 3.6 nM | – |
| CN[C@H](Cc1ccccc1)C(=O)N1CCC[C@H]1C(=O)N[C@@H](CCCNC(=N)N)C(=O)c1ccccn1 | 73 nM | 0.8 | 85 nM | – |
| CN[C@H](Cc1ccccc1)C(=O)N1CCC[C@H]1C(=O)N[C@@H](CCCN=C(N)N)C(=O)c1nccn1C | 4400 nM | – | 50 nM | – |
| CN[C@H](Cc1ccccc1)C(=O)N1CCC[C@H]1C(=O)N[C@@H](CCCN=C(N)N)C(=O)c1nc2ccccc2o1 | 2.9 nM | 0.8 | 3.8 nM | – |
| CN[C@H](Cc1ccccc1)C(=O)N1CCC[C@H]1C(=O)N[C@@H](CCCN=C(N)N)C(=O)c1nc2ccccc2[nH]1 | – | 3.2 | – | – |
| Cc1ccc(S(=O)(=O)NC(=N)NCCC[C@H](NC(=O)[C@@H]2CCCN2C(=O)[C@@H](Cc2ccccc2)N(C)C(=O)OCc2ccccc2)C(O)c2nc3ccccc3s2)cc1 (some centres undefined) | > 150000 nM | – | 5300 nM | – |
| CN[C@H](Cc1ccccc1)C(=O)N1CCC[C@H]1C(=O)N[C@@H](CCCN=C(N)N)C(=O)c1nc2c(s1)CCCC2 | – | 1.3 | – | – |
